Test [1] deals with Primary bovine adrenal cortex capillary endothelial (BCE) cells. The test can be described thus: chemotaxis assay of synthetic peptides (Table 2). It is filed as cell-based. The note with it: for Inhibition of chemotaxis: 100 ng/ml peptide, FGF-2 10 ng/ml, BCE cells, 5 h; for inhibition of chemotaxis, stated in words: chemotaxis assay of table 2. How it is done:
Synthetic peptides were produced by Multiple Peptide Systems, San Diego Calif., USA, and dissolved in 1 mM ZnCl2/0.5xPBS at a stock concentration of 1 mg/ml. The sequences of the peptides were as follows:
A migration assay was performed in a modified Boyden chamber as described earlier (Auerbach et al., 1991) using micropore polycarbonate filters (8 μm thick, 8 μm pore) coated with type-1 collagen solution at 100 μg/ml (Vitrogen 100, Collagen Corp). Primary bovine adrenal cortex capillary endothelial (BCE) cells were trypsinized and resuspended at a concentration of 7.5×10^5 cells/ml in Dulbecco's modified essential medium (Invitrogen) containing 0.25% BSA and Trasylol at 1000 KIE. The cell suspension was placed in the upper chamber. In the lower chamber below the filter was placed medium containing 0.25% BSA and when indicated, 10 ng/ml fibroblast growth factor (FGF-2; Peprotech). Recombinant HRGP produced in 293 cells, alternatively, synthetic peptides, all at a final concentration of 100 ng/ml (or as indicated), was placed in both chambers either alone or in combination with FGF-2. After 5 h at 37° C., the medium was removed and cells sticking to the filter were fixed in pure methanol and stained with Giemsa stain. The number of cells on the lower side of the filter was counted using an image analysis software (Easy Image Analysis) from TeknoOptik, Sweden. All samples were analyzed in series of at least six parallel wells for each treatment.

Test [2] deals with endothelial cells. The test can be described thus: chemotaxis of endothelial cells towards FGF-2, truncated HRGP proteins. It is filed as cell-based. The note with it: recombinant truncated forms of HRGP. How it is done:
(§1) A migration assay was performed in a modified Boyden chamber as described earlier (Auerbach et al., 1991) using micropore polycarbonate filters (8 μm thick, 8 μm pore) coated with type-1 collagen solution at 100 μg/ml (Vitrogen 100, Collagen Corp). BCE, PAE/FGFR-1 or NIH 3T3 cells were preincubated or not with HRGP (100 ng/ml) for 30 min, trypsinised and resuspended at a concentration of 7.5×10^5 cells/ml in Dulbecco's modified essential medium (Invitrogen) containing 0.25% BSA and Trasylol at 1000 KIE. FGF-2 and VEGF-A was used at 5 ng/ml, HRGP and the protein C inhibitor (PCI) at 100 ng/ml and BSA at 0.25%. After 5 h at 37° C., migrated cells were stained with Giemsa and counted using an image analysis software (Easy Image Analysis) from Tekno Optik AB, Sweden. All samples were analysed in at least six parallel wells for each treatment.
To determine which part of HRGP was responsible for the anti-angiogenic effect, recombinant truncated forms of the protein were produced (FIG. 5A). Truncated versions containing the C-terminal part of HRGP, but lacking an intact N-terminus, were not possible to produce, maybe due to instability.

Test [3] concerns T241 fibrosarcoma cells. The experiment in a line: fibrosarcoma tumour growth in mice (HRGP). It is filed as in vivo. The note with it: 14 days. On the procedure: Animal work was carried out at the local animal facility and was approved by the Uppsala University board of animal experimentation and thus performed according to the UKCCCR guidelines for the welfare of animals in experimental neoplasia (Workman et al (1988)). The mice were anesthetized with isoflurane (Forene; Abbott) during all manipulations. Female, 5 week old, C57BL6/1 mice (Mollegard/Bomhultgard, Denmark) were injected with 0.5×10^6 T241 fibrosarcoma cells subcutaneously (s.c.) into the left flank. Animals carrying palpable tumours were randomized (n=7-10 animals/treatment group) and received treatment with vehicle (PBS), 4 mg/kg/day of pHRGP or 5 mg/kg/day of human IgG or His-HRGP, given as daily subcutaneous injections in the right flank. The tumours were measured with a caliper once a day, in a blind procedure, and volumes were calculated by the formula […]. When the tumours reached the upper limit of 2 cm^3, the mice were sacrificed. Three animals in each group were perfused with 4% paraformaldehyde in PBS pH 7.4. Tumours were embedded in paraffin according to standard histological procedures and sectioned at […] thickness.
C57/bl6 mice were inoculated subcutaneously with T241 fibrosarcoma cells on their left flank and when the tumours were palpable (after 4-6 days), a daily treatment was initiated with HRGP or control (PBS; FIG. 2A, or human IgG; FIG. 2B). Endostatin was included in one study for comparison (FIG. 2B). The treatment was given as subcutaneous injections in the right flank until the size of the control tumours reached the upper limit of […] (11 days; FIG. 2A, 14 days; FIG. 2B). Injections with both pHRGP (4 mg/kg/day) and His-HRGP (5 mg/kg/day) led to a drastic reduction in tumour growth and at the time of sacrifice, the size of the tumours was reduced by 67% (FIG. 2A) and 61% (FIG. 2B) respectively, compared to control-treated animals. Endostatin treatment (25 mg/kg/day) lacked significant inhibitory effect on tumour growth in this model (32% decrease).

For test [4], the system named is primary BCE cells. The experiment in a line: chemotaxis (migration) assay in modified Boyden chamber, BCE cells. It is filed as cell-based, bovine. Conditions: 100 ng/ml protein, FGF-2 5 ng/ml, 5 h. How it is done:
The porcine aortic endothelial (PAE) cell line overexpressing FGF receptor-1 (FGFR-1) (Wennström et al 1992) was cultured in Ham's F12/10% fetal bovine serum (FCS) and NIH 3T3 murine fibroblasts were cultured in Dulbecco's modified medium (DMEM)/10% newborn calf serum (NCS). F12, DMEM and serum were bought from Life Technologies. Primary bovine adrenal cortex capillary endothelial (BCE) cells were cultured on gelatin-coated dishes in DMEM/10% NCS and 2 ng/ml FGF-2 (Boehringer Mannheim). For chemotaxis assays, both PAE and NIH 3T3 cells were serum-starved over night in 0.1% BSA and BCE cells in 0.5% NCS. Human embryonic kidney (HEK) 293-EBNA cells were cultured in DMEM/10% FCS. Approximately every second month they were given 0.25 mg/ml G418 (Calbiochem) to ensure positive selection of the EBNA-1 expressing cells.
as §1

For the molecule AHHPHEHDTHRQHPHG [Pep 10], the Inhibition of chemotaxis entry in test [1] is listed as “+”.

Consider Ac-AHHPHEHDTH-NH2 [Pep 13A], for which the Inhibition of chemotaxis result in test [1] is “+”.

With Ac-AHHPHEHDTHRQHPH-NH2 [Pep 12A], the Inhibition of chemotaxis entry in test [1] is “+”. Same read-out and setting: the result for Ac-EHDTH-NH2 [Pep 15A] reads “+”. Consider DLHPHEQHPHEHDTHG [Pep 11A], for which, in test [1], the Inhibition of chemotaxis entry was “− (as compared to Pep 8 and Pep 11A)”; the “inhibition of chemotaxis, stated in words” value is “not to be effective”. For the molecule DLHPHKHHSHEQHPHG [Pep 8], in test [1], the Inhibition of chemotaxis result is “− (as compared to Pep 8 and Pep 11A)”; the “inhibition of chemotaxis, stated in words” value is “not to be effective”. In the case of KHHSHEQHPHGHHPHAHHPHEHDTHG [Pep 9A], in test [1], the Inhibition of chemotaxis result is “+”.

B1: His 5: recombinant His/Pro-rich domain (central region) of human HRGP (protein, listed as Homo sapiens)
chain: HLGHPFHWGGHERSSTTKPPFKPHGSRDHHHPHKPHEHGPPPPPDERDHSHGPPLPQGPPPLLPMSCSSCQHATFGTNGAQRHSHNNNSSDLHPHKHHSHEQHPHGHHPHAHHPHEHDTHRQHPHGHHPHGHHPHGHHPHGHHPHGHHPHC
Regarding B1, the entries for the “inhibition of chemotaxis of endothelial cells towards FGF-2” value in test [2], in test [2] (listed as central region (His/Pro-rich domain) of human HRGP) and in test [2] (listed as central region of human HRGP) were “inhibited chemotaxis”, “inhibited chemotaxis as potently as the mature protein” and “inhibit chemotaxis”, respectively.

B2: Endostatin: anti-angiogenic factor included in one tumour study for comparison (protein, UniProt P39060 1572-1754, looked up)
Endostatin: HSHRDFQPVLHLVALNSPLSGGMRGIRGADFQCFQQARAVGLAGTFRAFLSSRLQDLYSIVRRADRAAVPIVNLKDELLFPSWEALFSGSEGPLKPGARIFSFDGKDVLRHPTWPQKSVWHGSDPNGRRLTESYCETWRTEAPSATGQASSLLGGRLLGQSAASCHHAYIVLCIENSFMTASK
modifications: Endostatin
notes: anti-angiogenic factor included in one tumour study for comparison
Turning to B2, the “decrease of tumour growth” value in test [3] (25 mg/kg/day, comparison) worked out at 32%.

B3: His-HRGP: recombinant full-length HRGP produced in HEK-293-EBNA cells with a His-tag (protein)
chain: VSPTDCSAVEPEAEKALDLINKRRRDGYLFQLLRIADAHLDRVENTTVYYLVLDVQESDCSVLSRKYWNDCEPPDSRRPSEIVIGQCKVIATRHSHESQDLRVIDFNCTTSSVSSALANTKDSPVLIDFFEDTERYRKQANKALEKYKEENDDFASFRVDRIERVARVRGGEGTGYFVDFSVRNCPRHHFPRHPNVFGFCRADLFYDVEALDLESPKNLVINCEVFDPQEHENINGVPPHLGHPFHWGGHERSSTTKPPFKPHGSRDHHHPHKPHEHGPPPPPDERDHSHGPPLPQGPPPLLPMSCSSCQHATFGTNGAQRHSHNNNSSDLHPHKHHSHEQHPHGHHPHAHHPHEHDTHRQHPHGHHPHGHHPHGHHPHGHHPHGHHPHCHDFQDYGPCDPPPHNQGHCCHGHGPPPGHLRRRGPGKGPRPFHCRQIGSVYRLPPLRKGEVLPLPEANFPSFPLPHHKHPLKPDNQPFPQSVSESCPGKFKSGFPQVSMFFTHTFPK
modifications: left off: small tags and cut ends
notes: recombinant full-length HRGP produced in HEK-293-EBNA cells with a His-tag
Take B3: in test [3] (5 mg/kg/day s.c. daily, control human IgG), the “reduction of tumour size compared to control-treated animals at sacrifice” value is listed as 61%.

B4: His 4: recombinant truncated version of HRGP that covers the complete central region (protein, listed as Homo sapiens)
chain: VSPTDCSAVEPEAEKALDLINKRRRDGYLFQLLRIADAHLDRVENTTVYYLVLDVQESDCSVLSRKYWNDCEPPDSRRPSEIVIGQCKVIATRHSHESQDLRVIDFNCTTSSVSSALANTKDSPVLIDFFEDTERYRKQANKALEKYKEENDDFASFRVDRIERVARVRGGEGTGYFVDFSVRNCPRHHFPRHPNVFGFCRADLFYDVEALDLESPKNLVINCEVFDPQEHENINGVPPHLGHPFHWGGHERSSTTKPPFKPHGSRDHHHPHKPHEHGPPPPPDERDHSHGPPLPQGPPPLLPMSCSSCQHATFGTNGAQRHSHNNNSSDLHPHKHHSHEQHPHGHHPHAHHPHEHDTHRQHPHGHHPHGHHPHGHHPHGHHPHGHHPHC
For the molecule B4, the “inhibition of chemotaxis of endothelial cells towards FGF-2” value was “did not inhibit endothelial cell chemotaxis” in test [2] and “failure of His4 to inhibit endothelial cell chemotaxis” in test [2] (listed as His4).

B5: PCI: plasma protein of approximately the same mass as HRGP, specificity control (protein, UniProt P05154 26-406, looked up)
Plasma serine protease …: EMKKRVEDLHVGATVAPSSRRDFTFDLYRALASAAPSQSIFFSPVSISMSLAMLSLGAGSSTKMQILEGLGLNLQKSSEKELHRGFQQLLQELNQPRDGFQLSLGNALFTDLVVDLQDTFVSAMKTLYLADTFPTNFRDSAGAMKQINDYVAKQTKGKIVDLLKNLDSNAVVIMVNYIFFKAKWETSFNHKGTQEQDFYVTSETVVRVPMMSREDQYHYLLDRNLSCRVVGVPYQGNATALFILPSEGKMQQVENGLSEKTLRKWLKMFKKRQLELYLPKFSIEGSYQLEKVLPSLGISNVFTSHADLSGISNHSNIQVSEMVHKAVVEVDESGTRAAAATGTIFTFRSARLNSQRLVFNRPFLMFIVDNNILFLGKVNRP
Take B5: the “FGF-2-induced chemotaxis of BCE cells” value in test [4] is “no effect”.
